Where two headings read alike, the source gives them in different places.
What was measured:
UGT1A3 = target: T1, UGT1A3 (Homo sapiens, UniProt P35503); experiment: UGT1A3 supersomes-catalyzed 4-MU glucuronidation inhibition; conditions: recombinant human UGT, mean of triplicate
T1 sequence (P35503 29-534): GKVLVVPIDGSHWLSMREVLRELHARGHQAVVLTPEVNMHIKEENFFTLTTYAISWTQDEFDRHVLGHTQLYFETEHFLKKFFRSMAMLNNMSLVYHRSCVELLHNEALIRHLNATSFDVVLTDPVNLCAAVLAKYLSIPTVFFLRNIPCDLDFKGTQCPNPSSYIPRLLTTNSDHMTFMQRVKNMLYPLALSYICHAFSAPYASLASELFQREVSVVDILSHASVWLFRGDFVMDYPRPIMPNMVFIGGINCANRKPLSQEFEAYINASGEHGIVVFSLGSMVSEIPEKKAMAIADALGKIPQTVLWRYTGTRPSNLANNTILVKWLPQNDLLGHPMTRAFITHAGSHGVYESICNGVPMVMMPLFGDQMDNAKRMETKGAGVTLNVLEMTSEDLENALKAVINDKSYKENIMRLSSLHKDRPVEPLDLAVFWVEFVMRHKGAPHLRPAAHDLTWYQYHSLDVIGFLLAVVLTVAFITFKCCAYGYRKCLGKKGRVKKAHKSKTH

UGT1A7 = target: T2, UGT1A7 (Homo sapiens, UniProt Q9HAW7); experiment: UGT1A7 supersomes-catalyzed 4-MU glucuronidation inhibition; conditions: recombinant human UGT, mean of triplicate
T2 sequence (Q9HAW7 26-530): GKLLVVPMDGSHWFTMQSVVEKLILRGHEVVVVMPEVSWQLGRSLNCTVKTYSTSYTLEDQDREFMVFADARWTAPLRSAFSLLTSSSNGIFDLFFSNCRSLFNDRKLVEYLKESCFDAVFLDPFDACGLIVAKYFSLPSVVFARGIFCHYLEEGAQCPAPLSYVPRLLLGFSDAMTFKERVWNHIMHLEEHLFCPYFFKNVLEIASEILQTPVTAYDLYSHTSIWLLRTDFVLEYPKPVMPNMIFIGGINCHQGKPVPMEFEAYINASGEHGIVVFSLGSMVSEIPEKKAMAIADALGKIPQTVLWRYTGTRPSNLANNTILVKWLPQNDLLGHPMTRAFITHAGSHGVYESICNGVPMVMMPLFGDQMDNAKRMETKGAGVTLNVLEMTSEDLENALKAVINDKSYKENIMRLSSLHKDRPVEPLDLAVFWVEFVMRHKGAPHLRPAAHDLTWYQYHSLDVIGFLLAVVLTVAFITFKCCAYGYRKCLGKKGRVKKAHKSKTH

UGT1A6 = target: T3, UGT1A6 (Homo sapiens, UniProt P19224); conditions: for residual activity 1A6: recombinant human UGT, mean of triplicate; for inhibition percentage of UGT1A6 activity: 50 μM
T3 sequence (P19224 27-532): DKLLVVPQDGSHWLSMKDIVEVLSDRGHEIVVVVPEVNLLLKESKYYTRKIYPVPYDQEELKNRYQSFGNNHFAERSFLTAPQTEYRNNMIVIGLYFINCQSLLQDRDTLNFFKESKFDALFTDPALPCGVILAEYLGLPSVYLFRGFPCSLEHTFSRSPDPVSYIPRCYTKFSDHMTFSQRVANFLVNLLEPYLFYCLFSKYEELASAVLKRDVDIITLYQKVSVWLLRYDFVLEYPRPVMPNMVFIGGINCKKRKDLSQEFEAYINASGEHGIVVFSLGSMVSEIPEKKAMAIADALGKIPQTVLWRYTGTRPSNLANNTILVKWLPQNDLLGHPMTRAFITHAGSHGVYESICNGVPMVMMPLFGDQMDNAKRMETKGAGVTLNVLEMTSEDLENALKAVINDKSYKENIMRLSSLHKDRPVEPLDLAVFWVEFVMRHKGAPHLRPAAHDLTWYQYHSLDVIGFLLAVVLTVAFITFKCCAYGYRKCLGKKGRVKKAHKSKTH

UGT isoforms = experiment: Initial screening towards all UGT isoforms; format: biochemical, human; conditions: about 50 μM; isoforms not given

Row | residual activity 1A3 (UGT1A3; 50 μM LPC components) [%] | residual activity 1A7 (UGT1A7; 50 μM LPC components) [%] | residual activity 1A6 (UGT1A6; 50 μM LPC components) [%] | inhibition kinetic type towards UGT1A6 (UGT1A6; Dixon and Lineweaver-Burk plots, 4-MU glucuronidation) | residual activity 1A3 (UGT1A3; 50 μM PC components) [%] | residual activity 1A7 (UGT1A7; 50 μM PC components) [%] | residual activity 1A6 (UGT1A6; 50 μM PC components) [%] | Compound | inhibition of activity of UGT isoforms (UGT isoforms) | inhibition percentage of UGT1A6 activity (UGT1A6) [%]
1 | – | – | – | – | 110.7 | 175.5 | 35.0 | CCCCCCCCCCC(=O)OC[C@H](COP(=O)([O-])OCC[N+](C)(C)C)OC(=O)CCCCCCCCCC [PC 11:0, 11:0] | – | –
2 | – | – | – | – | 93.0 | 171.4 | 40.8 | CCCCCCCCCCCC(=O)OC[C@H](COP(=O)([O-])OCC[N+](C)(C)C)OC(=O)CCCCCCCCCCC [PC 12:0, 12:0] | – | –
3 | – | – | – | – | 110.7 | 160.6 | 56.5 | CCCCCCCCCCCCC(=O)OC[C@H](COP(=O)([O-])OCC[N+](C)(C)C)OC(=O)CCCCCCCCCCCC [PC 13:0, 13:0] | – | –
4 | – | – | – | – | 97.3 | 162.3 | 54.3 | CCCCCCCCCCCCCC(=O)OC[C@H](COP(=O)([O-])OCC[N+](C)(C)C)OC(=O)CCCCCCCCCCCCC [PC 14:0, 14:0] | – | –
5 | – | – | – | – | 103.4 | 172.7 | 55.0 | CCCCCCCCCCCCCCC(=O)OC[C@H](COP(=O)([O-])OCC[N+](C)(C)C)OC(=O)CCCCCCCCCCCCCC [PC 15:0, 15:0] | – | –
6 | – | – | – | – | 92.6 | 155.2 | 53.7 | CCCCCCCCCCCCCCCC(=O)OC[C@H](COP(=O)([O-])OCC[N+](C)(C)C)OC(=O)CCCCCCCCCCCCCCC [PC 16:0, 16:0] | – | –
7 | – | – | – | – | 81.4 | 138.9 | 49.1 | CCCCCCCCCCCCCCCCC(=O)OC[C@H](COP(=O)([O-])OCC[N+](C)(C)C)OC(=O)CCCCCCCCCCCCCCCC [PC 17:0, 17:0] | – | –
8 | – | – | – | – | 83.7 | 139.9 | 50.7 | CCCCCCCCCCCCCCCCCC(=O)OC[C@H](COP(=O)([O-])OCC[N+](C)(C)C)OC(=O)CCCCCCCCCCCCCCCCC [PC 18:0, 18:0] | – | –
9 | – | – | – | – | 75.9 | 135.5 | 49.1 | CCCCCCCCCCCCCCCCCCC(=O)OC[C@H](COP(=O)([O-])OCC[N+](C)(C)C)OC(=O)CCCCCCCCCCCCCCCCCC [PC 19:0, 19:0] | – | –
10 | – | – | – | – | 90.8 | 125.5 | 88.2 | CCCCCCCCCCCCCCCCCCCC(=O)OC[C@H](COP(=O)([O-])OCC[N+](C)(C)C)OC(=O)CCCCCCCCCCCCCCCCCCC [PC 20:0, 20:0] | – | –
11 | – | – | – | – | 88.2 | 122.0 | 85.4 | CCCCCCCCCCCCCCCCCCCCC(=O)OC[C@H](COP(=O)([O-])OCC[N+](C)(C)C)OC(=O)CCCCCCCCCCCCCCCCCCCC [PC 21:0, 21:0] | – | –
12 | – | – | – | – | 92.1 | 86.2 | 60.2 | CCCCCCCCCCCCCCCCCCCCCC(=O)OC[C@H](COP(=O)([O-])OCC[N+](C)(C)C)OC(=O)CCCCCCCCCCCCCCCCCCCCC [PC 22:0, 22:0] | – | –
13 | – | – | – | – | 80.4 | 118.8 | 98.9 | CCCCCCCCCCCCCCCCCCCCCCC(=O)OC[C@H](COP(=O)([O-])OCC[N+](C)(C)C)OC(=O)CCCCCCCCCCCCCCCCCCCCCC [PC 23:0, 23:0] | – | –

Further lines, the compound ahead of its results:

Row | Compound | residual activity 1A3 (UGT1A3; 50 μM LPC components) [%] | residual activity 1A7 (UGT1A7; 50 μM LPC components) [%] | residual activity 1A6 (UGT1A6; 50 μM LPC components) [%] | inhibition kinetic type towards UGT1A6 (UGT1A6; Dixon and Lineweaver-Burk plots, 4-MU glucuronidation) | residual activity 1A3 (UGT1A3; 50 μM PC components) [%] | residual activity 1A7 (UGT1A7; 50 μM PC components) [%] | residual activity 1A6 (UGT1A6; 50 μM PC components) [%] | inhibition of activity of UGT isoforms (UGT isoforms) | inhibition percentage of UGT1A6 activity (UGT1A6) [%]
14 | CCCCCC(=O)OC[C@@H](O)COP(=O)([O-])OCC[N+](C)(C)C [LPC 6:0] | 84.4 | 130.6 | 72.7 | – | – | – | – | – | –
15 | CCCCCCC(=O)OCC(O)COP(=O)([O-])OCC[N+](C)(C)C (stereo not drawn) [LPC 7:0] | 80.4 | 138.3 | 71.0 | – | – | – | – | – | –
16 | CCCCCCCC(=O)OCC(O)COP(=O)([O-])OCC[N+](C)(C)C (stereo not drawn) [LPC 8:0] | 80.3 | 133.3 | 74.2 | – | – | – | – | – | –
17 | CCCCCCCCC(=O)OC[C@@H](O)COP(=O)([O-])OCC[N+](C)(C)C [LPC 9:0] | 79.6 | 134.9 | 67.2 | – | – | – | – | – | –
18 | CCCCCCCCCC(=O)OC[C@@H](O)COP(=O)([O-])OCC[N+](C)(C)C [LPC 10:0] | 75.9 | 139.8 | 65.7 | – | – | – | – | – | –
19 | CCCCCCCCCCC(=O)OC[C@@H](O)COP(=O)([O-])OCC[N+](C)(C)C [LPC 11:0] | 75.9 | 149.9 | 65.7 | – | – | – | – | – | –
20 | CCCCCCCCCCCC(=O)OC[C@@H](O)COP(=O)([O-])OCC[N+](C)(C)C [LPC 12:0] | 74.8 | 138.6 | 80.2 | – | – | – | – | – | –
21 | CCCCCCCCCCCCC(=O)OC[C@@H](O)COP(=O)([O-])OCC[N+](C)(C)C [LPC 13:0] | 88.1 | 120.1 | 83.8 | – | – | – | – | – | –
22 | CCCCCCCCCCCCCC(=O)OC[C@@H](O)COP(=O)([O-])OCC[N+](C)(C)C [LPC 14:0] | 74.2 | 153.6 | 33.3 | – | – | – | – | – | –
23 | CCCCCCCCCCCCCCC(=O)OC[C@@H](O)COP(=O)([O-])OCC[N+](C)(C)C [LPC 15:0] | 52.8 | 156.2 | 2.9 | competitive inhibition | – | – | – | more than 90% | –
24 | CCCCCCCCCCCCCCCCC(=O)OC[C@@H](O)COP(=O)([O-])OCC[N+](C)(C)C [LPC 17:0] | 119.0 | 164.3 | 8.5 | – | – | – | – | more than 90% | –
25 | CCCCCC(=O)OC[C@H](COP(=O)([O-])OCC[N+](C)(C)C)OC(=O)CCCCC [PC 6:0, 6:0] | – | – | – | – | 105.1 | 166.0 | 67.3 | – | –
26 | CCCCCCC(=O)OC[C@H](COP(=O)([O-])OCC[N+](C)(C)C)OC(=O)CCCCCC [PC 7:0, 7:0] | – | – | – | – | 109.9 | 150.2 | 50.7 | – | –
27 | CCCCCCCC(=O)OC[C@H](COP(=O)([O-])OCC[N+](C)(C)C)OC(=O)CCCCCCC [PC 8:0, 8:0] | – | – | – | – | 119.1 | 114.8 | 25.6 | – | 74.4
28 | CCCCCCCCC(=O)OC[C@H](COP(=O)([O-])OCC[N+](C)(C)C)OC(=O)CCCCCCCC [PC 9:0, 9:0] | – | – | – | – | 117.7 | 137 | 21.4 | – | 78.6
29 | CCCCCCCCCC(=O)OC[C@H](COP(=O)([O-])OCC[N+](C)(C)C)OC(=O)CCCCCCCCC [PC 10:0, 10:0] | – | – | – | – | 107.4 | 163.2 | 23.2 | – | 76.8
30 | CC/C=C\C/C=C\C/C=C\C/C=C\C/C=C\C/C=C\CCC(=O)O[C@H](COC(=O)CCCCCCCCCCCCCCCCC)COP(=O)([O-])OCC[N+](C)(C)C [PC 18:0, 22:6, 1-stearoyl-2-docosahexaenoyl-sn-glycero-3-phosphocholine] | – | – | – | – | 90.0 | 167.9 | 88.8 | – | –

— PMC6631349 (Xenobiotica; the fate of foreign compounds in biological …, 2014)
